The text below walks through data of PubChem BioAssay AID651975 (The Scripps Research Institute Molecular Screening Center, 2013).

The structures appear in SMILES notation. The source made the active and inactive calls. No rule for the calls is given here.

The subject of this assay is StAR promoter luciferase reporter cells, luminescence inhibition. The experiment in a line: nonselective StAR promoter luciferase inhibitors – cell-based, luminescence, dose response, counter-screen for LRH-1 inverse agonist project, late-stage follow-up (AID 651975).
On to `COc1ccc(C2(C)NC(=O)N(CC(=O)NCCC3=CCCCC3)C2=O)cc1OC` (stereo not given), for which the IC50 was > 35.9 µM (inactive).
With `CCc1cc(=O)[nH]c(SCC(=O)Nc2ccc3c(c2)OCCO3)n1` the figure was > 35.9 µM (inactive); with `COc1ccc(NC(=O)CSc2ccc3c(c2)OCCO3)cc1`, > 35.9 µM (inactive).
For `Cc1ccc(NC(=O)COC(=O)C(NS(=O)(=O)c2ccc(Cl)cc2)C(C)O)c(Br)c1` (stereo not given), the IC50 was > 35.9 µM (inactive).
With `COc1ccc(NC(=O)CSc2nc(N)c(-c3ccccc3)c(=O)[nH]2)cc1` the figure was > 35.9 µM (inactive); with `O=C(COC(=O)c1ccc(=O)n(Cc2ccccc2)n1)Nc1ccc2c(c1)OCCO2`, > 35.9 µM (inactive); with `CCOc1ccc(NC(=O)CSc2nncc(=O)n2N)cc1`, > 35.9 µM (inactive).
Under `CCOc1ccc(OCCN2C(=O)NC(Cc3c[nH]c4ccccc34)C2=O)cc1` (stereo not given) stands > 35.9 µM (inactive); under `COc1ccc(NC(=O)CN2C(=O)NC3(CCCC3)C2=O)cc1`, > 35.9 µM (inactive).
With `COc1ccc(CCNC(=O)CSc2nn3c(=O)c(C)nnc3s2)cc1OC` the figure was > 35.9 µM (inactive); with `CC(C)CC1(C)NC(=O)N(CC(=O)Nc2ccc3c(c2)OCCO3)C1=O` (stereo not given), > 35.9 µM (inactive).
In the case of `O=c1[nH]c(Nc2ccc3c(c2)OCCO3)nnc1Cc1ccccc1`, the IC50 is > 35.9 µM (inactive).
With `Cc1cc(Br)ccc1NC(=O)CN1C(=O)CCC1=O` the figure was > 35.9 µM (inactive); with `CC(=O)Nc1ccc(NC(=O)CSc2ccc(-c3ccco3)nn2)cc1`, > 35.9 µM (inactive).
Under `Cc1cccc(NC(=O)COC(=O)CN2C(=O)c3ccccc3C2=O)c1C` stands > 35.9 µM (inactive); under `COC(=O)c1ccc(NC(=O)CN2CCN(c3ccc(Cl)cc3)CC2)cc1`, > 35.9 µM (inactive).
Turning to `CC(=O)Nc1ccc(N=c2cc([N+](=O)[O-])cc(Cl)n2O)cc1`, the IC50 was > 35.9 µM (inactive).
Under `COc1ccc(NC(=O)CSc2sc3c(O)cc(=O)[nH]c3c2C#N)c(OC)c1` stands > 35.9 µM (inactive); under `COC(=O)c1ccc(NC(=O)COc2cccc(-n3cnnn3)c2)cc1`, > 35.9 µM (inactive); under `CCc1c(C)nc(SCC(=O)Nc2ccc3c(c2)OCCO3)[nH]c1=O`, > 35.9 µM (inactive).
On to `CC1SC(C)C(=O)N(CC(=O)Nc2ccc3c(c2)OCO3)C1=O` (stereo not given), for which the IC50 was > 35.9 µM (inactive).
Under `O=C(COc1ccc2c3c(c(=O)oc2c1)CCC3)NCc1ccncc1` stands > 35.9 µM (inactive); under `CCOc1ccc(NC(=O)CSc2nc3[nH]ncc3c(=O)[nH]2)cc1`, > 35.9 µM (inactive).
With `CCOc1ccc(NC(=O)COC(=O)COc2cccc3c2OC(C)(C)C3)cc1`, the IC50 was > 35.9 µM (inactive).
In the case of `COCCn1c(C)cc(/C=C(\C#N)C(=O)OCC(=O)Nc2ccc(S(N)(=O)=O)cc2)c1C`, the IC50 is > 35.9 µM (inactive).
Under `COc1ccc(NC(=O)COC(=O)c2c(-c3ccccc3)noc2C)cc1` stands 33.9 µM (inactive); under `CCOc1ccc(NC(=O)COC(=O)CC2CCCCC2)cc1`, > 35.9 µM (inactive); under `CCCc1nnc(SCC(=O)Nc2ccc(C(=O)OCC)cc2)o1`, > 35.9 µM (inactive).
Under `CCCc1cc(=O)oc2cc(OCC(=O)NCc3ccccn3)ccc12` stands > 35.9 µM (inactive); under `CC(=O)Nc1ncc(Cc2cc(Cl)ccc2Cl)s1`, > 35.9 µM (inactive).
With `COC(=O)c1ccc(NC(=O)CSc2nc3ncccc3[nH]2)cc1`, the IC50 was > 35.9 µM (inactive).
With `CCCc1cc(=O)oc2c(C)c(OCC(=O)NCCN3CCOCC3)ccc12` the figure was > 35.9 µM (inactive); with `CCOc1ccc(NC(=O)COC(=O)c2ccc3c(c2)OCCO3)cc1`, > 35.9 µM (inactive).
Consider `O=C(CSc1nc(=O)n2cc(Cl)ccc2n1)Nc1ccc2c(c1)OCCO2`, for which the IC50 is > 35.9 µM (inactive).
For the compound `Cc1ccc(NC(=O)CSc2sc3c(O)cc(=O)[nH]c3c2C#N)c(F)c1`, the IC50 was > 35.9 µM (inactive).
With `N#CCSc1ccccc1NC(=O)CN1C(=O)C2CC=CCC2C1=O` (stereo not given) the figure was > 35.9 µM (inactive).
With `O=C1CCCN2N=C(SCC(=O)Nc3ccc(Br)cc3)SC2=N1` the figure was > 35.9 µM (inactive); with `CC(=O)c1ccc(NC(=O)C(C)O/N=C(\N)c2ccccc2)cc1` (stereo not given), > 35.9 µM (inactive).
Under `O=C(Nc1ccc(S(=O)(=O)N2CCOCC2)cc1)c1cccc([N+](=O)[O-])c1` stands > 35.9 µM (inactive).
For the compound `CCc1cc(=O)oc2c(C)c(OCC(=O)NCCN3CCOCC3)ccc12`, the IC50 is > 35.9 µM (inactive).
Under `O=C(OCC(=O)N1CCN(C(=O)COC(=O)c2ccc(O)cc2O)CC1)c1ccc(O)cc1O` stands > 35.9 µM (inactive); under `Cc1ccc(-c2csc(NC(=O)c3ccc([N+](=O)[O-])o3)n2)cc1`, > 35.9 µM (inactive); under `CCCc1cc(=O)oc2cc(C)cc(OCC(=O)NC3CC3)c12`, > 35.9 µM (inactive).
Under `COc1ccc(-n2c(N)c(C(=O)NCc3cccnc3)sc2=S)cc1` stands > 35.9 µM (inactive).
Under `COCC(=O)NC1CCN(CC(=O)Nc2ccc(OC)cc2[N+](=O)[O-])CC1` stands > 35.9 µM (inactive); under `Cc1ccc(NC(=O)CSc2nc3[nH]c(=O)cc(O)c3s2)c(Br)c1`, > 35.9 µM (inactive); under `COc1ccc(CCNC(=O)COC(=O)c2cc(Cl)nc(Cl)c2)cc1`, > 35.9 µM (inactive).
Take `Cc1cc(C)c2nc(NC(=O)c3ccc([N+](=O)[O-])o3)sc2c1`: the IC50 is > 35.9 µM (inactive).
Consider `COc1ccccc1Oc1nnnn1-c1ccc(C(N)=O)cc1`, for which the IC50 is > 35.9 µM (inactive).
As to `Cc1ccn2c(=O)nc(SCC(=O)Nc3ccc4c(c3)OCCO4)nc2c1`, the IC50 is > 35.9 µM (inactive).
Under `COc1ccc(CCNC(=O)COC(=O)c2cccn2C)cc1` stands > 35.9 µM (inactive); under `NC(=O)C1CCN(C(=O)COc2ccc3c4c(c(=O)oc3c2)CCCC4)CC1`, > 35.9 µM (inactive); under `Cc1cc(OCC(=O)Nc2nccs2)c2c(C)cc(=O)oc2c1`, > 35.9 µM (inactive).
With `O=C(COc1ccc2c3c(c(=O)oc2c1)CCCC3)NCc1ccccn1` the figure was > 35.9 µM (inactive); with `Cc1cccc(NC(=O)COC(=O)Cc2cccs2)c1C`, > 35.9 µM (inactive); with `COC(=O)c1ccc(NC(=O)CSc2ccc(-c3ccccn3)nn2)cc1`, > 35.9 µM (inactive).
With `COC(=O)c1ccc(NC(=O)CSc2nncn2-c2cccnc2)cc1` the figure was > 35.9 µM (inactive); with `Cc1ccc2cccc(OCC(=O)NCCC3=CCCCC3)c2n1`, > 35.9 µM (inactive); with `CCOc1ccc(NC(=O)CN2CCN(CC(=O)Nc3ccc(OC)cc3)CC2)cc1`, > 35.9 µM (inactive).
Take `COc1ccc(NC(=O)COC(=O)c2cc(S(=O)(=O)N3CCCC3)ccc2O)cc1`: the IC50 is > 35.9 µM (inactive).
Take `Cc1cc(Br)ccc1NC(=O)CN1C(=O)C2CC=CCC2C1=O` (stereo not given): the IC50 is 27.8 µM (inactive).
As to `O=C(Nc1ccc(Br)cn1)c1ccc([N+](=O)[O-])o1`, the IC50 is > 35.9 µM (inactive).
With `CC(=O)c1ccc(OC(C)C(=O)OCC(=O)NCCc2ccccc2)cc1` (stereo not given) the figure was > 35.9 µM (inactive); with `O=C(COC(=O)CCN1C(=O)C2CC=CCC2C1=O)NCCc1ccc(F)cc1` (stereo not given), > 35.9 µM (inactive).
With `Cc1ccc(NC(=O)COC(=O)C(NS(=O)(=O)c2ccc(Cl)cc2)C(C)O)cc1C` (stereo not given) the figure was > 35.9 µM (inactive).
With `COC(=O)c1ccc(NC(=O)CSc2nn3c(=O)c(C)nnc3s2)cc1` the figure was > 35.9 µM (inactive); with `COc1ccc(NC(=O)CS(=O)(=O)c2ccc(C)cc2)c(OC)c1`, > 35.9 µM (inactive).
Turning to `O=C(Nc1ccccc1)c1oc2ccccc2c1NC(=O)C1CC1`, the IC50 is > 35.9 µM (inactive).
As for `COc1ccc(CCNC(=O)COC(=O)C23CC4CC(CC(C4)C2)C3)cc1`, the IC50 is > 35.9 µM (inactive).
With `Cc1cc(=O)oc2c(C)c(OCC(=O)NC3CC(C)(C)NC(C)(C)C3)ccc12` the figure was > 35.9 µM (inactive); with `CCn1c(SCC(=O)Nc2ccc(Cl)cc2)nnc1C1CC1`, > 35.9 µM (inactive).
On to `O=C(CSc1nnc(CNC(=O)c2ccccc2F)o1)Nc1ccc2c(c1)OCCO2`, for which the IC50 is > 35.9 µM (inactive).
With `CN1CCN(c2ccc(S(=O)(=O)N3CCCCC3)cc2NC(=O)COc2ccc([N+](=O)[O-])cc2)CC1` the figure was > 35.9 µM (inactive); with `O=C(CN1C(=O)CCC1=O)Nc1ccc(Br)cc1`, > 35.9 µM (inactive).
Turning to `CCOc1ccc(NC(=O)CSc2nnc(C(C)C)n2CC)cc1`, the IC50 was > 35.9 µM (inactive).
Under `O=C(NCC1CCCO1)c1ccc(NC(=O)c2cccc([N+](=O)[O-])c2)cc1` (stereo not given) stands > 35.9 µM (inactive); under `O=C(COC(=O)c1ccc[n+]([O-])c1)Nc1ccc([N+](=O)[O-])cc1Cl`, > 35.9 µM (inactive); under `CCCc1cc(=O)oc2c(C)c(OCC(=O)NCCCn3ccnc3)ccc12`, > 35.9 µM (inactive).
Under `CCCc1cc(=O)oc2cc(OCC(=O)NCCc3ccc(S(N)(=O)=O)cc3)ccc12` stands > 35.9 µM (inactive); under `Cc1sc(NC(=O)C(C)C)c(C(=O)Nc2ccccc2)c1C`, > 35.9 µM (inactive).
With `Cc1cc(Br)ccc1NC(=O)CSc1nnc(CN2CCOCC2)n1C`, the IC50 is > 35.9 µM (inactive).
With `O=C(NCc1ccco1)c1nn(-c2ccccc2)c(=O)c2ccccc12` the figure was > 35.9 µM (inactive).
Under `COC(=O)c1ccc(CNC(=O)COC(=O)c2cc(Cl)nc(Cl)c2)cc1` stands > 35.9 µM (inactive).
Under `CCCc1cc(=O)oc2c(C)c(OCC(=O)NC3CC(C)(C)NC(C)(C)C3)ccc12` stands > 35.9 µM (inactive); under `COc1ccc(CCNC(=O)CSc2ccc(NC(C)=O)cc2)cc1OC`, > 35.9 µM (inactive).
